Measurements: patent US8278459B2, “UV-filter compounds” (DSM IP Assets B.V., priority 2007, dated 2012)

Assay: Skin binding experiment (pig ear skin, THF extraction, HPLC recovery)
Assay type: in vitro ADME
Details: for % UV filter bound to the skin: 2% (w) THF solution applied topically at 1 mg/cm^2, 32±1° C., duplicates
Method: The skin binding properties were determined by the following experiment. Skin samples (1 cm^2 each) were prepared by punching out from pig ear. The skin samples were placed in a 2 mL eppendorf plastic tube. The studied compounds were applied topically as a 2% (w) THF solution on the skin surface at a mean dose rate of 1 mg/cm^2. The samples were placed in a heatingblock and maintained at a normal skin temperature of 32±1° C. for the duration of the exposure period. At the end of the experiment, after 24 hours, respectively 72 h, each skin probe was extracted by shaking with 1000 μl of THF for 1 min and the resulting solution was analyzed by HPLC. The experiments were run in duplicates.
Compounds B and was tested for their skin-binding capacity, while compound A (described in Kawashita, Y; Nakamichi, N.; Kawabata, H.; Hayashi, M. Org. Lett. 2003, 5, 3713-3715) was used as a non-binding reference.
Skin fraction samples were injected into the HPLC system using DAD detection with the following conditions:
The % of UV filter bound to the skin was determined by calculation of the recovery rate using the following equation: […]

Structure (SMILES) | % UV filter bound to the skin (After 24 h) | % UV filter bound to the skin (After 72 h) | adhesion to the skin (in words) (compared to the non-binding compound A)
Cc1ccc(-c2nc3ccccc3o2)cc1 [Compound A, reference compound] | 36.3% | 61.1% | 
O=C(CO)C(O)C(O)c1ccc(-c2nc3ccccc3o2)cc1 (centres unmarked) [Compound B, 4-(4-Benzoxazol-2-yl-phenyl)-1,3,4-trihydroxy-butan-2-one] | 96.6% | 100% | significant adhesion to the skin
